Measured values from ChEMBL document CHEMBL4507276 (2021).

What was measured:
[1] = target: Serine/threonine-protein kinase D1 (Homo sapiens) (UniProt Q15139); details: Compound concentration 1000.0 nM
[2] = target: Protein kinase C delta type (Homo sapiens) (UniProt Q05655); details: Compound concentration 1000.0 nM
[3] = target: Serine/threonine-protein kinase Nek11 (Homo sapiens) (UniProt Q8NG66); details: Compound concentration 1000.0 nM
[4] = target: Eukaryotic translation initiation factor 2-alpha kinase 1 (Homo sapiens) (UniProt Q9BQI3); details: Compound concentration 1000.0 nM
[5] = target: T1, Beta-adrenergic receptor kinase 1 (Homo sapiens) (UniProt P25098); details: Compound concentration 1000.0 nM
T1 sequence (whole entry): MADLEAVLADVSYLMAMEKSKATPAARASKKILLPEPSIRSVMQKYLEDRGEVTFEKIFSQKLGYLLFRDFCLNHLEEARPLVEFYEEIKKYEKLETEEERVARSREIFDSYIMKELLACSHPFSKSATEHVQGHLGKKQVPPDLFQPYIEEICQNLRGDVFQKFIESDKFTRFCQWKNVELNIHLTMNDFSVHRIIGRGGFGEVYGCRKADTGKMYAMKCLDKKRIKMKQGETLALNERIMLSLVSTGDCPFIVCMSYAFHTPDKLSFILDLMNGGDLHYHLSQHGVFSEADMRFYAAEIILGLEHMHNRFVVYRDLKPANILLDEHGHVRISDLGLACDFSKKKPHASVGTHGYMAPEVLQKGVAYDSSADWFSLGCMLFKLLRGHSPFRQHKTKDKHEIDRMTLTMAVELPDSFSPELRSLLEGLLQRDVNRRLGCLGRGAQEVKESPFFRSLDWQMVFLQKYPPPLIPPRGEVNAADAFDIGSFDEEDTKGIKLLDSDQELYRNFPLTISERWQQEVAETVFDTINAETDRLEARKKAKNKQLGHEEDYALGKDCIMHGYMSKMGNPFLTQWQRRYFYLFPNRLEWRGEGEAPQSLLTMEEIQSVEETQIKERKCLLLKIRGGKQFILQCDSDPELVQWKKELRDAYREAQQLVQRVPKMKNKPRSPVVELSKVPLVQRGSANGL

[6] = target: Citron Rho-interacting kinase (Homo sapiens) (UniProt O14578); details: Compound concentration 1000.0 nM
[7] = target: Mitogen-activated protein kinase 1 (Homo sapiens) (UniProt P28482); details: Compound concentration 1000.0 nM
[8] = target: Wee1-like protein kinase 2 (Homo sapiens) (UniProt P0C1S8); details: Compound concentration 1000.0 nM
[9] = target: Death-associated protein kinase 2 (Homo sapiens) (UniProt Q9UIK4); details: Compound concentration 1000.0 nM
[10] = target: Transient receptor potential cation channel subfamily M member 6 (Homo sapiens) (UniProt Q9BX84); details: Compound concentration 1000.0 nM
[11] = target: STE20-like serine/threonine-protein kinase (Homo sapiens) (UniProt Q9H2G2); details: Compound concentration 1000.0 nM
[12] = target: Kappa-type opioid receptor (Homo sapiens) (UniProt P41145); details: Compound concentration 10.0 uM
[13] = tested on: Receptor-type tyrosine-protein kinase FLT3 (Homo sapiens), P36888 [D835H]; details: Compound concentration 1000.0 nM
[14] = target: Serine/threonine-protein kinase MAK (Homo sapiens) (UniProt P20794); details: Compound concentration 1000.0 nM
[15] = target: Serine/threonine-protein kinase OSR1 (Homo sapiens) (UniProt O95747); details: Compound concentration 1000.0 nM
[16] = target: Casein kinase I isoform gamma-1 (Homo sapiens) (UniProt Q9HCP0); details: Compound concentration 1000.0 nM
[17] = target: Serine/threonine-protein kinase 26 (Homo sapiens) (UniProt Q9P289); details: Compound concentration 1000.0 nM
[18] = target: 5'-AMP-activated protein kinase catalytic subunit alpha-2 (Homo sapiens) (UniProt P54646); details: Compound concentration 1000.0 nM
[19] = target: Mitogen-activated protein kinase kinase kinase 9 (Homo sapiens) (UniProt P80192); details: Compound concentration 1000.0 nM
[20] = target: Cyclin-dependent kinase 4 (Homo sapiens) (UniProt P11802); details: Compound concentration 1000.0 nM
[21] = tested on: ALK tyrosine kinase receptor (Homo sapiens), Q9UM73 [C1156Y]; details: Compound concentration 1000.0 nM
[22] = tested on: Receptor-type tyrosine-protein kinase FLT3 (Homo sapiens), P36888 [K663Q]; details: Compound concentration 1000.0 nM
[23] = target: Sodium-dependent serotonin transporter (Homo sapiens) (UniProt P31645); details: Compound concentration 10.0 uM
[24] = target: Mu-type opioid receptor (Homo sapiens) (UniProt P35372); details: Compound concentration 10.0 uM
[25] = target: T2, Serine/threonine-protein kinase 3 (Homo sapiens) (UniProt Q13188); details: Compound concentration 1000.0 nM
T2 sequence (whole entry): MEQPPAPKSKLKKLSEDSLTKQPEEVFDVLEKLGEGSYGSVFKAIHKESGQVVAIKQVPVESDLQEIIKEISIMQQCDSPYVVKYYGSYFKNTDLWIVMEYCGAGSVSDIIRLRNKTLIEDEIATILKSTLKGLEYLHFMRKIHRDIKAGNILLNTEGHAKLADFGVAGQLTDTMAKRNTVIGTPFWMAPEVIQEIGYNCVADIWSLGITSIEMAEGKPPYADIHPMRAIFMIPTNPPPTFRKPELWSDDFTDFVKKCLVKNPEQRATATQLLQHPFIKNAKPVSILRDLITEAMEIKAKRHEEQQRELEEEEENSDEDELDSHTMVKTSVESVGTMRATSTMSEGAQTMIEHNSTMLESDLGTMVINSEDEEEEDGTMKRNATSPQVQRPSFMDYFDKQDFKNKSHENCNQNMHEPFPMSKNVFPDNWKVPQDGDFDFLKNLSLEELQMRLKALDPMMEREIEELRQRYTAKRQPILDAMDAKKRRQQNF

[26] = target: Ribosomal protein S6 kinase alpha-5 (Homo sapiens) (UniProt O75582); details: Compound concentration 1000.0 nM
[27] = target: Serine/threonine-protein kinase N2 (Homo sapiens) (UniProt Q16513); details: Compound concentration 1000.0 nM
[28] = target: Phosphatidylinositol 4,5-bisphosphate 3-kinase catalytic subunit alpha isoform (Homo sapiens) (UniProt P42336); details: Compound concentration 1000.0 nM
[29] = tested on: Receptor-type tyrosine-protein kinase FLT3 (Homo sapiens), P36888 [UNDEFINED MUTATION]; details: Compound concentration 1000.0 nM

Casein kinase I isoform gamma-1 (Homo sapiens), sequence (Q9HCP0 whole entry, looked up, canonical isoform): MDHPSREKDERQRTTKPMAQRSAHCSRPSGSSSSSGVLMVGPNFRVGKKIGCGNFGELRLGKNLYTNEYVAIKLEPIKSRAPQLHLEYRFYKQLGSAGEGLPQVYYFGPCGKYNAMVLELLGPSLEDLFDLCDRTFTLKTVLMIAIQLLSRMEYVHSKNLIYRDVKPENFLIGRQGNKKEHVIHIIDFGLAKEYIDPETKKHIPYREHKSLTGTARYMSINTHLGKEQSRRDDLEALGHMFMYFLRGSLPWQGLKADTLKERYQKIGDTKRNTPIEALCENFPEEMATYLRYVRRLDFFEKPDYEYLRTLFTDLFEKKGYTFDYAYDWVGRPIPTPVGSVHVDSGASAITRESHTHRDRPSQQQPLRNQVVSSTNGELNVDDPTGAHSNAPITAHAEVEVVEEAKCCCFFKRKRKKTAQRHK
Serine/threonine-protein kinase OSR1 (Homo sapiens), sequence (O95747 2-527 limits assumed): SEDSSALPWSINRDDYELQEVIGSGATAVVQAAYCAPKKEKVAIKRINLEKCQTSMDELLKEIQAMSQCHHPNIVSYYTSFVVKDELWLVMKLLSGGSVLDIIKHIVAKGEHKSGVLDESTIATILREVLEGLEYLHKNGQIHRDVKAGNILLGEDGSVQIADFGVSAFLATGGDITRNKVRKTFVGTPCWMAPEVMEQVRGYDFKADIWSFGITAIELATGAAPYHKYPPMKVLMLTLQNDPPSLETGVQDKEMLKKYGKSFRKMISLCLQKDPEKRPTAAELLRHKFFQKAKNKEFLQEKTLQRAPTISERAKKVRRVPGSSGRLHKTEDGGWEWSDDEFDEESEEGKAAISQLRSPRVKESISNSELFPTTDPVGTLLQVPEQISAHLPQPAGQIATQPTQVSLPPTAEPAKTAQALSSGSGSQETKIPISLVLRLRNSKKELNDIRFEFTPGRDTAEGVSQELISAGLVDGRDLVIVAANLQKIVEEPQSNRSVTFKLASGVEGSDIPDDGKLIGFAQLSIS
Kappa-type opioid receptor (Homo sapiens), sequence (P41145 whole entry): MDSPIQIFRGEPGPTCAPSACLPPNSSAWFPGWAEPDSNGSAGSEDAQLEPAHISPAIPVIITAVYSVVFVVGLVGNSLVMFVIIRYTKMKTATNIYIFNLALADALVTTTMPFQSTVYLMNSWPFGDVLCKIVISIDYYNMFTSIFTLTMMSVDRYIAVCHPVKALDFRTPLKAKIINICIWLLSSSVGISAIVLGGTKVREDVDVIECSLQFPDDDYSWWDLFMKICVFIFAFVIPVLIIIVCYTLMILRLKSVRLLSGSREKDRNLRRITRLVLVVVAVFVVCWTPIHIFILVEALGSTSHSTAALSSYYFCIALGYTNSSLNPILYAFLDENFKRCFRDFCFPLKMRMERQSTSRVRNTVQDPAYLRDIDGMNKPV
Protein kinase C delta type (Homo sapiens), sequence (Q05655 whole entry, looked up): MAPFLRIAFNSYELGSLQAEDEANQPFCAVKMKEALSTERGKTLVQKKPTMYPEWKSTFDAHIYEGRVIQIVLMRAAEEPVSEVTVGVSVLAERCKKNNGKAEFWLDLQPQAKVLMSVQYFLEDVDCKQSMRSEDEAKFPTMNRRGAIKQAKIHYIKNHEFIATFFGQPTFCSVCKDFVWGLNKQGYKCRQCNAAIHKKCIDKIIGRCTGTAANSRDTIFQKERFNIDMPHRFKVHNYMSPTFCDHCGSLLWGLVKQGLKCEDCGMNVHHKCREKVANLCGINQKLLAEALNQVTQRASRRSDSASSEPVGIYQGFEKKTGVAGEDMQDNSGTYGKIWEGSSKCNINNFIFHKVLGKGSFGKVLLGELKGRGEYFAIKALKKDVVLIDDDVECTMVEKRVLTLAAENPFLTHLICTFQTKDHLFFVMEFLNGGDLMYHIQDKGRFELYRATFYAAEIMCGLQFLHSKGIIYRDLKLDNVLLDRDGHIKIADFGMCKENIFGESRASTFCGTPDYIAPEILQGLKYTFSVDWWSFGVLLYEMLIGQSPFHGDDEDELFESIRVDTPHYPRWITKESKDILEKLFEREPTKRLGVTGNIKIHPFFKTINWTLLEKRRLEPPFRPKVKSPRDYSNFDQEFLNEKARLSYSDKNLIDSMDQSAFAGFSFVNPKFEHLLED
Citron Rho-interacting kinase (Homo sapiens), sequence (O14578 whole entry): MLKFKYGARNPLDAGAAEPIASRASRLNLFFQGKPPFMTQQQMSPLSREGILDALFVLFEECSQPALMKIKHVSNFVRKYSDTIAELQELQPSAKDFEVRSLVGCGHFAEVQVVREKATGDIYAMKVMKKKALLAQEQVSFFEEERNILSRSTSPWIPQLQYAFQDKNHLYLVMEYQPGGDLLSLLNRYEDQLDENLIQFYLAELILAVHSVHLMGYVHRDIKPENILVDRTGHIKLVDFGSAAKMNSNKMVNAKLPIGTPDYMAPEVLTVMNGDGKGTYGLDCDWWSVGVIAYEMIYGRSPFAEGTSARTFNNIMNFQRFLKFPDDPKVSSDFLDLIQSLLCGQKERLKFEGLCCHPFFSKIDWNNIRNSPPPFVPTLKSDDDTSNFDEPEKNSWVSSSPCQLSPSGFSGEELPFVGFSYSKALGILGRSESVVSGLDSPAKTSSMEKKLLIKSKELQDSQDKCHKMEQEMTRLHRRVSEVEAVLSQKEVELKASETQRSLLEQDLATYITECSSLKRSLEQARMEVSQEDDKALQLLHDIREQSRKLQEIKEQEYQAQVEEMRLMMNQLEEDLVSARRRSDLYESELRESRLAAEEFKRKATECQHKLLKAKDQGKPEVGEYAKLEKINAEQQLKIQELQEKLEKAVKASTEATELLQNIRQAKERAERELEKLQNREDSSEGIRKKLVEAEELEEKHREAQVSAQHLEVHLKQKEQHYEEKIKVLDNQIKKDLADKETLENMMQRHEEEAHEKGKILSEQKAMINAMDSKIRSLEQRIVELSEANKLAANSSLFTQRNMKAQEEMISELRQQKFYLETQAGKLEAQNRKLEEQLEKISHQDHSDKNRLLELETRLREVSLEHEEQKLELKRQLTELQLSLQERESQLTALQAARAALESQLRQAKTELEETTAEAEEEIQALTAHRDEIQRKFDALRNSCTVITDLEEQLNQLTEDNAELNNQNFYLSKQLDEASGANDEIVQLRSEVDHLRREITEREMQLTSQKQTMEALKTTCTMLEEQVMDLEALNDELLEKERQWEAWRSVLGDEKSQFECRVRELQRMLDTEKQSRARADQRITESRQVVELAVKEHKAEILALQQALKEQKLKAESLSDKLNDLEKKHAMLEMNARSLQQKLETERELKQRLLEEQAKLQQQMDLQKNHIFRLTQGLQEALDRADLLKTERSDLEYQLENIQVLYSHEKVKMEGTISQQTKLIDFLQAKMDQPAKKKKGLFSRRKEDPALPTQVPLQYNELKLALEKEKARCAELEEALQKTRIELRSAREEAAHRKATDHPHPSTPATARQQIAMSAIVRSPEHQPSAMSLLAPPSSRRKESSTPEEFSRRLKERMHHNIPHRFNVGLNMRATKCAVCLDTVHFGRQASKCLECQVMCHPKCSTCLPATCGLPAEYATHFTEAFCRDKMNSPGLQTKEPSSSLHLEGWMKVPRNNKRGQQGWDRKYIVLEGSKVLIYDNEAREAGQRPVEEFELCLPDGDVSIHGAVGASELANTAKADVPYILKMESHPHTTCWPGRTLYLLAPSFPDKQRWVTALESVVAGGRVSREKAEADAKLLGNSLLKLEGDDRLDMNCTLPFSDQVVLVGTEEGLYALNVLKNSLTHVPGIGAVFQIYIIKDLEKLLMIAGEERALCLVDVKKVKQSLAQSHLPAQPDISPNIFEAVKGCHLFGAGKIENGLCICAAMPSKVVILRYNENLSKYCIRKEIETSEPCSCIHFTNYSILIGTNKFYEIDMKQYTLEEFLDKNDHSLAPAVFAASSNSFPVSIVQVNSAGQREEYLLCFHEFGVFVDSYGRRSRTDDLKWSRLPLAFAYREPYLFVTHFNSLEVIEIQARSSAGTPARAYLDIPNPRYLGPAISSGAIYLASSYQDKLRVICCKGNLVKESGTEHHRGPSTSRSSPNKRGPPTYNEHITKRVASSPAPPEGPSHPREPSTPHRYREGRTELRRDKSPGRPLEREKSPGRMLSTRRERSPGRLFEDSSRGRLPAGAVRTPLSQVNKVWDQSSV
Phosphatidylinositol 4,5-bisphosphate 3-kinase catalytic subunit alpha isoform (Homo sapiens), sequence (P42336 whole entry, canonical isoform): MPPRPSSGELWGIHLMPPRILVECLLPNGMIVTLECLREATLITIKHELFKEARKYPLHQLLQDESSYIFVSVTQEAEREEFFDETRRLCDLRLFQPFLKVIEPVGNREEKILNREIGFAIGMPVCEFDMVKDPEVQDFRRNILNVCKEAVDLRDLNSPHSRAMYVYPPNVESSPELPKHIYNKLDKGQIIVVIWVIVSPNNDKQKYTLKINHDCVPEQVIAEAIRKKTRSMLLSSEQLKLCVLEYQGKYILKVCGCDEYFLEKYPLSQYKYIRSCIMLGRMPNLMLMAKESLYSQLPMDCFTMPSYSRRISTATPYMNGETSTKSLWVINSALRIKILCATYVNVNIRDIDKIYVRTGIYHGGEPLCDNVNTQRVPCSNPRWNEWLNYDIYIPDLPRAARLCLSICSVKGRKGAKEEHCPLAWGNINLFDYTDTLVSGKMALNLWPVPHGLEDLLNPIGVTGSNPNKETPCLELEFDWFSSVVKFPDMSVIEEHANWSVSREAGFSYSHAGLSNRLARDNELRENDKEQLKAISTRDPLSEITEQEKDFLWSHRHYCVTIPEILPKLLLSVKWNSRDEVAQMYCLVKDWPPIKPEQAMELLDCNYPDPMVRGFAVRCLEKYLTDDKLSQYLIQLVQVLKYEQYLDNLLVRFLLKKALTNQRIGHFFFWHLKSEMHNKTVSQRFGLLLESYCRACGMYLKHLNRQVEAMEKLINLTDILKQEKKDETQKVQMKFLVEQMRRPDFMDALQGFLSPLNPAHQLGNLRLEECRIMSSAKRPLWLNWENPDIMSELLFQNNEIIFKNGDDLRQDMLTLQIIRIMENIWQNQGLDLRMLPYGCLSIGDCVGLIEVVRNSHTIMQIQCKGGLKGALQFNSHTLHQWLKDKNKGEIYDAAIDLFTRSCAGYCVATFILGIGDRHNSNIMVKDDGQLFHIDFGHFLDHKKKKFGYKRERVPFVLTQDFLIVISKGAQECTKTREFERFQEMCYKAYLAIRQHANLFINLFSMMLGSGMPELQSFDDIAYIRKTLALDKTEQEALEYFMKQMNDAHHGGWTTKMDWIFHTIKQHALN

CN(C)C(=O)Cn1cc(-c2nc(C3(c4ccc(-c5cnc(N)nc5)cc4)CC3)no2)cn1 [BI 0153]
inactive: residual activity [1] 100% | residual activity [2] 67% | residual activity [3] 90% | residual activity [4] 88% | residual activity [5] 67% | residual activity [6] 86% | residual activity [7] 81% | residual activity [8] 99% | residual activity [9] 86% | residual activity [10] 86% | residual activity [11] 77% | inhibition [12] 16.2% | residual activity [13] 93% | residual activity [14] 87% | residual activity [15] 82% | residual activity [16] 90% | residual activity [17] 89% | residual activity [18] 86% | residual activity [19] 91% | residual activity [20] 100% | residual activity [21] 100% | residual activity [22] 100% | inhibition [23] 5.35% | inhibition [24] 12.6% | residual activity [25] 100% | residual activity [26] 98% | residual activity [27] 77% | residual activity [28] 76% | residual activity [29] 89%

CN(C)C(=O)Cn1cc(-c2nc([C@@](C)(c3ccc(-c4cnc(N)nc4)cc3)C3CC3)no2)cn1 [BI 665915]
inactive: residual activity [1] 100% | residual activity [2] 98% | residual activity [3] 100% | residual activity [4] 96% | residual activity [5] 78% | residual activity [6] 84% | residual activity [7] 100% | residual activity [8] 100% | residual activity [9] 100% | residual activity [10] 78% | residual activity [11] 94% | inhibition [12] 33.9% | residual activity [13] 86% | residual activity [14] 100% | residual activity [15] 86% | residual activity [16] 100% | residual activity [17] 97% | residual activity [18] 100% | residual activity [19] 100% | residual activity [20] 94% | residual activity [21] 98% | residual activity [22] 94% | inhibition [23] 6.28% | inhibition [24] 4.55% | residual activity [25] 100% | residual activity [26] 93% | residual activity [27] 100% | residual activity [28] 96% | residual activity [29] 62%
